This passage reports chromatographic logP and efficacy results from US8138211B2, “Isothiazolyloxyphenylamidines and their use as fungicides” (Bayer Cropscience AG, priority 2009, dated 2012).

A short description of series [1]: logP by HPLC on reversed-phase columns (C18), EEC Directive 79/831 Annex V.A8. The series is classed as physicochemical. Here is the method: The logP values were measured in accordance with EEC Directive 79/831 Annex V.A8 by HPLC (High Performance Liquid Chromatography) on reversed-phase columns (C18), using the method below: ^[a] The determination was carried out in the acidic range at pH 2.3 using the mobile phases 0.1% aqueous phosphoric acid and acetonitrile linear gradient from 10% acetonitrile to 95% acetonitrile. ^[b] The LC-MS determination in the acidic range was carried out at pH 2.7 using the mobile phases 0.1% aqueous formic acid and acetonitrile (comprising 0.1% formic acid) linear gradient from 10% acetonitrile to 95% acetonitrile ^[c] The LC-MS determination in the neutral range was carried out at pH 7.8 using the mobile phases 0.001 molar ammonium bicarbonate solution and acetonitrile linear gradient from 10% acetonitrile to 95% acetonitrile. Calibration was carried out using unbranched alkan-2-ones (having 3 to 16 carbon atoms) with known logP values (determination of the logP values by the retention times using linear interpolation between two successive alkanones).

Another series concerns Pyricularia oryzae. The series is classed as in vivo. The following applies: active compound concentration of 250 ppm; rice, protective; evaluation 7 days after inoculation.
A further series relates to Cochliobolus miyabeanus. Kind of series: Cochliobolus test (rice)/protective. The following applies: active compound concentration of 250 ppm, protective, evaluation 4 days after inoculation.
Where [2] appears, read: reversed-phase HPLC column (C18), LC-MS, acidic range pH 2.7, 0.1% aqueous formic acid and acetonitrile, read-out: logP(HCO2H).

Structures are written as SMILES. Like-named read-outs stand apart in the source and are kept apart here.

Method for Cochliobolus miyabeanus: • Solvent: 28.5 parts by weight of acetone • Emulsifier: 1.5 parts by weight of alkylaryl polyglycol ether
One day after the treatment, the plants are inoculated with an aqueous spore suspension of Cochliobolus miyabeanus. The plants are then placed in a greenhouse at 100% relative atmospheric humidity and 25° C.
Evaluation is carried out 4 days after the inoculation.

The molecule `CCN(C)/C=N/c1cc(Cl)c(Oc2snc(-c3ccccc3)c2Br)cc1C` [No. 54, N′-{4-[(4-bromo-3-phenyl-1,2-thiazol-5-yl)oxy]-5-chloro-2-methylphenyl}-N-ethyl-N-methylimidoformamide] gave a chromatographic logP in series [1] (pH 2.7) of 2.26.
The molecule `N#Cc1c(Cc2ccc(Cl)cc2)nsc1Cl` [5-chloro-3-(4-chlorobenzyl)isothiazole-4-carbonitrile] returned a chromatographic logP in series [1] (pH 2.7) of 3.87.
The same measure, in the same setting: in the case of `Clc1cc(-c2ccccc2)ns1` [5-chloro-3-phenylisothiazole] it was 3.82.
On to `N#Cc1c(Cc2ccc(Cl)cc2)nsc1N` [5-amino-3-(4-chlorobenzyl)isothiazole-4-carbonitrile], for which the chromatographic logP in series [1] (setting [2]) came out at 2.4.
Molecule `CCN(C)/C=N/c1cc(C)c(Oc2snc(Cc3ccc(Cl)cc3)c2C#N)cc1C` [No. 27, N′-(4-{[3-(4-chlorobenzyl)-4-cyano-1,2-thiazol-5-yl]oxy}-2,5-dimethylphenyl)-N-ethyl-N-methylimidoformamide] came in with a chromatographic logP in series [1] (pH 2.7) of 2.39.
As for `Clc1snc(-c2ccccc2)c1Br` [4-bromo-5-chloro-3-phenylisothiazole], in series [1] (setting [2]), the chromatographic logP is 4.41.
Consider `Cc1cc(Oc2snc(-c3ccccc3)c2Br)c(Cl)cc1N` [4-[(4-bromo-3-phenylisothiazol-5-yl)oxy]-5-chloro-2-methylaniline], for which the chromatographic logP in series [1] (pH 2.7) came to 4.41.
Same read-out and setting: as for `CCCN(C)/C=N/c1cc(C)c(Oc2snc(C(C)(C)C)c2C#N)cc1C` [No. 4, N′-{4-[(3-tert-butyl-4-cyano-1,2-thiazol-5-yl)oxy]-2,5-dimethylphenyl}-N-methyl-N-propylimidoformamide], the figure is 2.19.
Same read-out and setting: in the case of `Clc1snc(-c2ccccc2)c1Cl` [4,5-dichloro-3-phenylisothiazole] it was 4.44; in that of `Cc1cc(Oc2snc(-c3ccccc3)c2Cl)c(C)cc1N` [4-[(4-chloro-3-phenylisothiazol-5-yl)oxy]-2,5-dimethylaniline], 4.22.
As for `Nc1snc(-c2ccccc2)c1Cl` [4-chloro-3-phenylisothiazol-5-amine], in series [1] (setting [2]), the chromatographic logP is 2.21.
Turning to `Cc1cc(Oc2snc(Cc3ccc(Cl)cc3)c2C#N)c(C)cc1N` [5-(4-amino-2,5-dimethylphenoxy)-3-(4-chlorobenzyl)isothiazole-4-carbonitrile], in series [1] (pH 2.7), the chromatographic logP is 4.03.
Regarding `CCN(C)C=Nc1cc(C)c(Oc2snc(C(C)(C)C)c2C#N)cc1C` [compound 6], the efficacy in the series with Pyricularia oryzae and with Cochliobolus miyabeanus was ≥ 80% throughout.
For `Cc1cc(Oc2cc(-c3ccccc3)ns2)c(C)cc1N` [2,5-dimethyl-4-[(3-phenylisothiazol-5-yl)oxy]aniline], in series [1] (pH 2.7), the chromatographic logP was 3.6.
On to `CCN(C)/C=N/c1cc(C)c(Oc2snc(-c3ccccc3)c2Cl)cc1C` [No. 48, N′-{4-[(4-chloro-3-phenyl-1,2-thiazol-5-yl)oxy]-2,5-dimethylphenyl}-N-ethyl-N-methylimidoformamide], for which the chromatographic logP in series [1] (pH 2.7) stood at 2.25.
Take `Nc1snc(-c2ccccc2)c1Br` [4-bromo-3-phenylisothiazol-5-amine]: the chromatographic logP in series [1] (setting [2]) came out at 2.26.
In series [1] (pH 2.7), `CCN(C)/C=N/c1cc(C)c(Oc2cc(-c3ccccc3)ns2)cc1C` [No. 43, N′-{2,5-dimethyl-4-[(3-phenyl-1,2-thiazol-5-yl)oxy]phenyl}-N-ethyl-N-methylimidoformamide] displayed a chromatographic logP of 2.11.
Consider `CC(C)(C)c1nsc(N)c1C#N` [5-amino-3-tert-butylisothiazole-4-carbonitrile], for which, in series [1] (setting [2]), the chromatographic logP is 2.4.
